Reference: ChEMBL document CHEMBL1132929 (J Med Chem, 2000)
Peptide text beside a SMILES is read from it.

Target: Substance-P receptor (Rana catesbeiana)
Assay: SP-induced [Ca2+] mobilization in CHO cells expressing bullfrog Tachykinin receptor 1

EC50 [nM]	SMILES
14	CSCC[C@H](NC(=O)[C@H](CC(C)C)NC(=O)CNC(=O)[C@H](Cc1ccc(O)cc1)NC(=O)[C@H](Cc1ccccc1)NC(=O)[C@H](CO)NC(=O)[C@H](CC(=O)O)NC(=O)[C@H](CO)NC(=O)[C@H](CCCCN)NC(=O)[C@@H](N)Cc1ccc(O)cc1)C(N)=O (H-YKSDSFYGLM-NH2)
14	CC[C@H](C)[C@H](NC(=O)[C@H](Cc1ccccc1)NC(=O)[C@H](CO)NC(=O)[C@H](C)NC(=O)[C@@H]1CCCN1C(=O)[C@H](CC(N)=O)NC(=O)[C@@H](N)Cc1cnc[nH]1)C(=O)NCC(=O)N[C@@H](CC(C)C)C(=O)N[C@@H](CCSC)C(N)=O (H-HNPASFIGLM-NH2)
0.6	CSCC[C@H](NC(=O)[C@H](CC(C)C)NC(=O)CNC(=O)[C@H](Cc1ccc(O)cc1)NC(=O)[C@H](Cc1ccccc1)NC(=O)[C@H](CCCNC(=N)N)NC(=O)[C@H](CC(=O)O)NC(=O)[C@@H]1CCCN1C(=O)[C@H](CO)NC(=O)[C@@H]1CCCN1C(=O)[C@@H](N)CCCCN)C(N)=O (H-KPSPDRFYGLM-NH2)
